Tested on: 11-dehydro-thromboxane B2 (TxM)
Assay: Urinary TxM (11-dehydro-thromboxane B2) by liquid chromatography/tandem mass spectrometry in participants of the HACVD sub-study of ASCOT
Format: in vivo, human
Conditions: SNP association with TxM seen only in patients not taking aspirin
Description: The genetic determinants of urinary TxM were investigated. 540 participants in the Hypertension Associated Cardiovascular Disease (HACVD) sub-study of ASCOT gave urine samples at two separate time-points. TxM was measured using liquid chromatography/tandem mass spectrometry, expressed as pg/mg creatinine to correct for urine concentration. All subjects were genotyped on the CVD50K chip, a cardiovascular-specific chip with >50,000 SNPs. Usual quality control measures were applied. Linear regression analysis was performed, assuming an additive genetic model, adjusting for the covariates; age, sex, smoking habit, diabetes, systolic blood pressure, BMI, HDL, LDL, aspirin and anti-hypertensive regimen.
Most interesting of all was the observation that the association of TxM with the 21 PPARGC1β gene SNPs was almost totally driven by the patients not taking aspirin (beta-values range; +184-+392 pg/mg p-values range; 0.00002-0.06), whilst associations between these same 21 SNPs and TxM amongst aspirinated subjects were in large part not statistically significant (beta-values range; −10-+134 pg/mg p-values range; 0.02-0.97).

Structure (SMILES): CC(=O)Oc1ccccc1C(=O)O [aspirin]
- Effect on excess production of thromboxane in carriers of PPARGC1β genetic variants: completely, or in large part, blocks the excess production of thromboxane

— patent US20140179766A1, “IDENTIFICATION OF THROMBOSIS OR BLEEDING RISK IN AN INDIVIDUAL WITH AND WITHOUT ANTI-PLATELET THERAPY” (ROYAL COLLEGE OF SURGEONS IN IRELAND, priority 2011, published 2014)
